Source: patent US8541362B2, “Cyclopropyl compounds and compositions for delivering active agents” (Emisphere Technologies, Inc., priority 2005, dated 2013)
Values belong to the compound of their own block, whether it stands above or below them.

Experiments:
Format in all cases: in vivo, rat
[1] = Oral delivery of insulin in rats with delivery agent: serum insulin by ELISA; details: procedure of Example 2 (0.25 mg/kg insulin, 100 mg/kg delivery agent)
Description: (§1) General anesthesia was induced in Sprague Dawley rats (250-350 gram) with 5% isoflurane in an anesthetic chamber, and the anesthesia was maintained with 2% isoflurane in 98% oxygen carrier gas up to the end of the study.
(§2) Jugular vein cannulation was carried out first for blood sampling by creating an incision just above the right clavicle. Using blunt forceps, the connective and adipose tissue were pushed aside and the jugular vein was exposed. The distal end of the exposed jugular vein was ligated, while its proximal end was strained to occlude the blood flow momentarily. A portion of the vessel near to the distal end was nipped, and the silicon catheter was inserted toward the proximal direction. After the catheter was tightened with a silk suture, the skin wound was closed with surgical staples.
(§3) The jejunum was prepared as follows: the proximal jejunum section was identified first. Plasma insulin and blood glucose levels were determined from a blood sample from the […] and used as a baseline.
(§4) The animal's abdominal cavity was opened. After the jejunum was identified, the part of the proximal segment was nipped with surgical scissors. A dosing tubing connected to a 1 ml syringe was introduced into the incised jejunum and carefully dosed. After dosing, the dosing tubing was removed. Then, a 2-cm polyethylene tubing was inserted into the jejunum so that the cut opening was located in the middle of the tubing. Both ends of the tube were tied with suture with the jejunum tissue to secure the jejunum, and, after the wound dried, a vet bond was applied over the top of the wound with a cotton swab. A 2 cm bridge tubing was placed to maintain the intestinal fluid flow intact.
(§5) After dosing and installation of the bridge, the exposed intestines were gently pushed back into place. The exposed wounds were covered with a wet gauge, and then with a paraffin film to prevent dehydration. Thereafter, blood samplings were performed at scheduled time-points.
(§6) Dose: 0.25 mg/kg Insulin, 100 mg/kg Delivery Agent, Concentration: 0.25 mg/ml, 100 mg/ml. Dose volume: 1 ml/kg.
(§7) Human recombinant insulin (ICN Biomedicals, Aurora, Ohio) was dissolved in deionized water (ph˜6.5) to obtain stock insulin solutions having a concentration of 15 mg/ml. 7-cyclopropylheptanoic acid was dissolved in deionized water to obtain a 200 mg/ml delivery agent solution. The free acid form of the delivery agent was converted to the sodium salt by adding one equivalent of sodium hydroxide. Solutions were vortexed, sonicated, and heated. If necessary, additional sodium hydroxide was added in μl quantities to achieve uniform solubility in the delivery agent solutions. Solutions were adjusted to a pH of 7.5-8.5 by the addition of either hydrochloric acid or sodium hydroxide, as appropriate. The insulin stock solution was then added to the delivery agent solutions to obtain an administration solution ultimately having an insulin concentration of 0.25 mg/ml. After solubilization and drug addition, administration solutions were brought to a final volume by the addition of deionized water.
The insulin assay was performed as follows. Concentrations of insulin were quantified in rat serum using a sandwich-type ELISA kit (Diagnostic Systems Laboratories, Inc., Webster, Tex.). Samples were collected into capiject tubes containing a clot activator (red top, serum separator tubes). Samples were allowed to clot for ˜20 minutes at 4° C. […]

Sprague Dawley rats [2] = assay: Oral delivery of insulin in rats with delivery agent: change in blood glucose; details: delivery agent: insulin = 200 mg: 0.5 mg per Kg
Sprague Dawley rats [3] = assay: as above; details: 0.25 mg/kg insulin + 100 mg/kg delivery agent
Description: as §1, §2, §3, §4, §5, §6, §7

SMILES: COC(=O)CCCCCCC(=O)NC1CC1 [Compound 11]
Max Mean Cmax [uU/mL] [1]: 84.93 ± 57.8 uU/mL

SMILES: O=C(O)CCCCCCC(=O)NCC1CC1 [Compound 13]
% of Glucose Reduction from Control (Sprague Dawley rats [2]; time 0 min): −0.862% | % of Glucose Reduction from Control (Sprague Dawley rats [2]; time 15 min): −10.523% | % of Glucose Reduction from Control (Sprague Dawley rats [2]; time 30 min): −20.866% | % of Glucose Reduction from Control (Sprague Dawley rats [2]; time 45 min): −28.011% | % of Glucose Reduction from Control (Sprague Dawley rats [2]; time 60 min): −32.952%

SMILES: O=C(O)CCCCCCCCC(=O)NC1CC1 [Compound 9, 10-(cyclopropylamino)-10-oxodecanoic acid]
Max Mean Cmax [uU/mL] [1]: 142.7 ± 62.7 uU/mL

SMILES: O=C(O)CCCCCCC1CC1 [Compound 1, 7-cyclopropylheptanoic acid]
Decrease of blood glucose (%) Average Value (Sprague Dawley rats [3]; time 0 min): 0% | Decrease of blood glucose (%) Average Value (Sprague Dawley rats [3]; time 5 min): −1.5% | Decrease of blood glucose (%) Average Value (Sprague Dawley rats [3]; time 10 min): −15.3% | Decrease of blood glucose (%) Average Value (Sprague Dawley rats [3]; time 20 min): −32.9% | Decrease of blood glucose (%) Average Value (Sprague Dawley rats [3]; time 40 min): −38.7% | Decrease of blood glucose (%) Average Value (Sprague Dawley rats [3]; time 60 min): −36.6% | Decrease of blood glucose (%) Average Value (Sprague Dawley rats [3]; time 90 min): −21.8%

More lines, now with the values ahead:

Max Mean Cmax [uU/mL] [1]: 71.3 ± 35.2 uU/mL
SMILES: COC(=O)CCCCCCC(=O)NCC1CC1 [Compound 14]

Max Mean Cmax [uU/mL] [1]: 340.4 ± 191.3 uU/mL
SMILES: COC(=O)CCCCCCCCC(=O)NC1CC1 [Compound 12]

Max Mean Cmax [uU/mL] [1]: 71.2 ± 33.7 uU/mL
SMILES: O=C(O)CCCCCCCCC(=O)NCC1CC1 [Compound 15]
